Molecules are shown by their SMILES. Several values for one entry are separate records, joined by “and”; a condition that tells them apart may be missing. Equal values may be shown once. Records with an inconclusive call do not appear.

The experiment relates to nude mice, A549 intrarenal xenograft, tumor weight change. Kind of experiment: NCI In Vivo Anticancer Drug Screen. Data for tumor model A549 Human Adenocarcinoma of Lung with characteristics of Type II Alveolar Epithelial cells (intrarenal inoculation) in NU/NU BALB/C (nude) mice. The note with it: endpoint: mean tumor weight change, schedule: Q04DX003 (ip), higher = larger tumour. In short, it runs like this:
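Mice bearing transplantable tumors were treated and survival or tumor size recorded. Values are given as treated-group measurement divided by vehicle-control measurement (T/C).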

Setting [1] is: dose: 75.0 mg/kg/injection, vehicle: saline.
The mark [2] stands for this setting: dose: 150.0 mg/kg/injection, vehicle: saline.
Where [3] appears, read: dose: 300.0 mg/kg/injection, vehicle: Klucel (hydroxypropylcellulose) (HPC).
[4] abbreviates: dose: 150.0 mg/kg/injection, vehicle: Klucel (hydroxypropylcellulose) (HPC).
The mark [5] stands for this setting: dose: 75.0 mg/kg/injection, vehicle: saline with Tween-80.
The mark [6] stands for this setting: dose: 150.0 mg/kg/injection, vehicle: saline with Tween-80.
[7] abbreviates: dose: 300.0 mg/kg/injection, vehicle: saline.
Setting [8] is: dose: 600.0 mg/kg/injection, vehicle: saline.
[9] abbreviates: dose: 100.0 mg/kg/injection, vehicle: saline with Tween-80.
The mark [10] stands for this setting: dose: 37.5 mg/kg/injection, vehicle: Klucel (hydroxypropylcellulose) (HPC).
Where [11] appears, read: dose: 75.0 mg/kg/injection, vehicle: Klucel (hydroxypropylcellulose) (HPC).
Where [12] appears, read: dose: 50.0 mg/kg/injection, vehicle: Klucel (hydroxypropylcellulose) (HPC).
The mark [13] stands for this setting: dose: 100.0 mg/kg/injection, vehicle: Klucel (hydroxypropylcellulose) (HPC).

With `O=C(Oc1ccccc1)c1cc(O)c(O)c(O)c1`, the T/C by setting is: (dose: 18.75 mg/kg/injection, vehicle: saline) 60 % of control; (dose: 37.5 mg/kg/injection, vehicle: saline) 80 % of control; under setting [1], 50 % of control; under setting [2], 62 % of control.
Regarding `COc1cc(C(C)c2cc3c(cc2OCCO)OCO3)cc(OC)c1OC` (stereo not given), the T/C (dose: 125.0 mg/kg/injection, vehicle: suspension in saline) was 117 % of control and the T/C (dose: 250.0 mg/kg/injection, vehicle: suspension in saline) was 72 % of control.
`Cc1cc(NC(=S)SCc2ccc3c(c2)OCO3)ccc1Cl`: the T/C is, setting by setting: under setting [3], 61 % of control; (dose: 600.0 mg/kg/injection, vehicle: Klucel (hydroxypropylcellulose) (HPC)) 73 % of control.
For the compound `O=C1CNC(=O)N1CN1CCOCC1`, the T/C under setting [4] was 198 % of control and the T/C under setting [3] was 69 % of control.
On to `CCCCCCNc1nc(NCCCCCC)c2[nH]c(NCCCCCC)nc2n1`, for which the T/C under setting [5] is 52 % of control and the T/C under setting [6] was 117 % of control.
Consider `CC(O)CCC(=O)c1ccoc1` (stereo not given), for which the T/C (dose: 24.0 mg/kg/injection, vehicle: saline) is 186 % of control and the T/C (dose: 32.0 mg/kg/injection, vehicle: saline) is 82 % of control.
`CC(=O)NCCSSCCCCS(=O)O`: the T/C is 111 % of control under setting [1], 60 % of control under setting [2], 39 % of control under setting [7] and 70 % of control under setting [8].
As for `CC1(O)C=CC(=O)C=C1`, the T/C was 121 % of control (dose: 25.0 mg/kg/injection, vehicle: water) and 100 % of control (dose: 50.0 mg/kg/injection, vehicle: water).
For the compound `O=C1C2CC(Cl)C(SSC3CC4C(=O)N(SC(Cl)(Cl)C(Cl)Cl)C(=O)C4CC3Cl)CC2C(=O)N1SC(Cl)(Cl)C(Cl)Cl` (stereo not given), the T/C is, setting by setting: (dose: 25.0 mg/kg/injection, vehicle: saline with Tween-80) 123 % of control; (dose: 50.0 mg/kg/injection, vehicle: saline with Tween-80) 78 % of control; under setting [9], 98 % of control; (dose: 200.0 mg/kg/injection, vehicle: saline with Tween-80) 73 % of control.
Regarding `O=[N+]([O-])c1ccc([I+]c2ccccc2)cc1`, the T/C by setting is: (dose: 18.75 mg/kg/injection, vehicle: Klucel (hydroxypropylcellulose) (HPC)) 35 % of control; under setting [10], 101 % of control; under setting [11], 51 % of control.
Take `CS(=O)(=O)CS(=O)(=O)OCCF`: the T/C is, setting by setting: (dose: 6.25 mg/kg/injection, vehicle: saline) 40 % of control; (dose: 12.5 mg/kg/injection, vehicle: saline) 62 % of control; (dose: 25.0 mg/kg/injection, vehicle: saline) 50 % of control; (dose: 50.0 mg/kg/injection, vehicle: saline) 50 % of control.
For `N#CC(C#N)=NNc1ccc2cn[nH]c2c1`, the T/C under setting [12] is -6 % of control; the T/C under setting [13] was 117 % of control and 124 % of control.
For the compound `Cc1ccc(C2=CSC3=NCCN23)cc1Cl`, the T/C is, setting by setting: (dose: 2.5 mg/kg/injection, vehicle: suspension in saline) 88 % of control; (dose: 5.0 mg/kg/injection, vehicle: saline) 119 % of control; (dose: 5.0 mg/kg/injection, vehicle: suspension in saline) 60 % of control; (dose: 10.0 mg/kg/injection, vehicle: suspension in saline) 44 % of control; (dose: 20.0 mg/kg/injection, vehicle: saline) 104 % of control; (dose: 20.0 mg/kg/injection, vehicle: suspension in saline) 102 % of control. The T/C (dose: 40.0 mg/kg/injection, vehicle: saline) was 26 % of control.
For `O=c1[nH]cnc2c1cnn2CN1CCOCC1`, the T/C under setting [12] was 166 % of control and the T/C under setting [13] was 72 % of control.
On to `CCN(CC)CC(C)(C)C(=O)/C=C/c1ccc(/C=C/C(=O)C(C)(C)CN(CC)CC)cc1`, for which the T/C by setting is: (dose: 15.0 mg/kg/injection, vehicle: saline) 84 % of control; (dose: 30.0 mg/kg/injection, vehicle: saline) 73 % of control; (dose: 60.0 mg/kg/injection, vehicle: saline) 82 % of control.
For the compound `CCCCOCN(COCCCC)C12CC3CC(CC(C3)C1)C2`, the T/C under setting [9] is 123 % of control and the T/C (dose: 400.0 mg/kg/injection, vehicle: saline with Tween-80) is 203 % of control.
`CN(C)CCNc1ccc(CO)c2sc3ccc(O)cc3c(=O)c12`: the T/C is, setting by setting: (dose: 54.0 mg/kg/injection, vehicle: saline with Tween-80) 5 % of control; (dose: 90.0 mg/kg/injection, vehicle: saline with Tween-80) 3 % of control; under setting [6], 2 % of control and 12 % of control; (dose: 250.0 mg/kg/injection, vehicle: saline with Tween-80) -36 % of control.
In the case of `CCCCCNc1ncnc2c(C)[nH]nc12`, the T/C was 82 % of control under setting [10], 105 % of control under setting [11] and 100 % of control under setting [4].
`COc1cccc(Sc2ccc([N+](=O)[O-])c3no[n+]([O-])c23)c1`: the T/C is 49 % of control under setting [5] and 86 % of control under setting [6].
As for `COc1cc2c[n+](C)c3c(c2cc1OC)Cc1cc2c(cc1-3)OCO2`, the T/C (dose: 18.75 mg/kg/injection, vehicle: saline with Tween-80) is 39 % of control.
On to `Cc1ccc(NN=O)nc1`, for which the T/C runs as follows: (dose: 5.0 mg/kg/injection, vehicle: water) 79 % of control; (dose: 10.0 mg/kg/injection, vehicle: water) 81 % of control; (dose: 20.0 mg/kg/injection, vehicle: water) 61 % of control; (dose: 40.0 mg/kg/injection, vehicle: water) 33 % of control.
In the case of `CC1(C)Nc2cc3c(cc2-n2cccc21)oc1ccccc13`, the T/C under setting [2] is 77 % of control; the T/C under setting [7] is 98 % of control; the T/C under setting [8] is 66 % of control; the T/C (dose: 1200.0 mg/kg/injection, vehicle: saline) was 57 % of control.

For the origin of these results see PubChem BioAssay AID278 (DTP/NCI, 2004).
